Experimental data published in ChEMBL document CHEMBL5226304, “Fused-azepinones: Emerging scaffolds of medicinal importance” (Eur J Med Chem, 2021).
≈ marks a conversion by molar mass, not a printed value.

Assays:
[1] = biological target: Cyclin-dependent kinase 1/cyclin B (Homo sapiens, UniProt P06493); assay: Inhibition of CDK1/Cyclin B (unknown origin) in presence of gamma32P-ATP by scintillation counter analysis; format: protein-complex assay
[2] = biological target: Cyclin-dependent kinase 5/CDK5 activator 1 (Homo sapiens, UniProt Q00535); assay: Inhibition of CDK5/p25 (unknown origin); format: protein-complex assay
[3] = organism: Homo sapiens; assay: Selectivity ratio of IC50 for Chk1 (unknown origin) to IC50 for (unknown origin)
[4] = test system: L5178Y; assay: Cytotoxicity against mouse L5178Y cells by MTT assay; format: functional, cell-based
[5] = biological target: Cyclin-dependent kinase 2/cyclin A (Homo sapiens, UniProt P24941); assay: Inhibition of CDK2/Cyclin A (unknown origin); format: protein-complex assay
[6] = test system: KB 3-1; assay: Cytotoxicity against human KB-3-1 cells by MTT assay; format: functional, cell-based
[7] = biological target: Integrin alpha-V/beta-3 (Homo sapiens, UniProt P05106+P06756); assay: Antagonist activity against human integrin alphaVbeta3 expressed in CHO-K1 cells measured after 4 hrs by Cell adhesion assay; format: cell-based
[8] = test system: MOLM-13; assay: Antiproliferative activity against human MOLM-13 cells assessed as inhibition of proliferation measured after 96 hrs by alamerBlue assay; format: functional, cell-based
[9] = test system: LAPC4; assay: Antiproliferative activity against human LAPC4 cells assessed as inhibition of proliferation measured after 96 hrs by alamerBlue assay; format: functional, cell-based
[10] = biological target: Casein kinase I; assay: Inhibition of CK1 (unknown origin); format: protein assay, Homo sapiens
[11] = biological target: CDK9/Cyclin T (Homo sapiens, UniProt P50750); assay: Inhibition of CDK9/Cyclin T (unknown origin); format: protein-complex assay
[12] = biological target: Dual specificity tyrosine-phosphorylation-regulated kinase 1A (Homo sapiens, UniProt Q13627)
Description: Inhibition of DYRK1A (unknown origin)

[13] = test system: Human immunodeficiency virus 1; assay: Antiviral activity against HIV1 assessed as inhibition of LC5-RIC cells infection at 50 uM relative to control; format: functional
[14] = test system: THP-1; assay: Antiinflammatory activity in human THP-1 cells assessed as inhibition of LPS-stimulated IL2 production; format: functional, cell-based
[15] = test system: THP-1; assay: Antiinflammatory activity in human THP-1 cells assessed as inhibition of LPS-stimulated TNFalpha production; format: functional, cell-based
[16] = biological target: Serine/threonine-protein kinase Chk1 (Homo sapiens, UniProt O14757); assay: Inhibition of Chk1 (unknown origin)
[17] = biological target: Glycogen synthase kinase-3 beta (Rattus norvegicus, UniProt P18266); assay: Inhibition of recombinant recombinant rat GSK3beta using GS-1 peptide as substrate in presence of [gamma-32P]ATP measured after 30 mins incubation by scintillation counting analysis
[18] = biological target: Protein kinase C (PKC); assay: Inhibition of Protein kinase C (unknown origin); format: protein assay, Homo sapiens
[19] = biological target: Mitogen-activated protein kinase kinase kinase 7 (Homo sapiens) (UniProt O43318); assay: Inhibition of MAP3K7 kinase (unknown origin) at 10 uM relative to control
[20] = test system: MCF7; assay: Cytotoxicity against human MCF7 cells by MTT assay; format: functional, cell-based
[21] = test system: MDA-MB-231; assay: Cytotoxicity against human MDA-MB-231 cells by MTT assay; format: functional, cell-based
[22] = Selectivity index, ratio of IC50 for CDK1/Cycline B (unknown origin) to IC50 for GSK3beta (unknown origin)
[23] = organism: Homo sapiens; assay: Inhibition of MPK (unknown origin) at 10 uM relative to control
[24] = biological target: Serine/threonine-protein kinase PLK1 (Homo sapiens) (UniProt P53350); assay: Inhibition of PLK1 (unknown origin) at 10 uM relative to control
[25] = biological target: Serine/threonine-protein kinase pim-1 (Homo sapiens) (UniProt P11309); assay: Inhibition of PIM1 (unknown origin) at 10 uM relative to control
[26] = biological target: Mitogen-activated protein kinase kinase kinase 11 (Homo sapiens) (UniProt Q16584); assay: Inhibition of MLK3 (unknown origin) at 10 uM relative to control
[27] = biological target: MAP/microtubule affinity-regulating kinase 3 (Homo sapiens) (UniProt P27448); assay: Inhibition of MARK3 (unknown origin) at 10 uM relative to control
[28] = biological target: Aurora kinase B (Homo sapiens) (UniProt Q96GD4); assay: Inhibition of Aurora B (unknown origin) at 10 uM relative to control
[29] = Inhibition of MAPKK (unknown origin); design: species or system Homo sapiens
[30] = biological target: Cyclin-dependent kinase 4/cyclin D1 (Homo sapiens, UniProt P11802); assay: Inhibition of CDK4/Cyclin D1 (unknown origin); format: protein-complex assay
[31] = biological target: RAF proto-oncogene serine/threonine-protein kinase (Homo sapiens, UniProt P04049); assay: Inhibition of c-Raf (unknown origin)
[32] = Inhibition of cAMP-dependent protein kinase (unknown origin); design: species or system Homo sapiens
[33] = Inhibition of cGMP-dependent protein kinase (unknown origin); design: species or system Homo sapiens
[34] = test system: 786-0; assay: Antitumor activity against human 786-0 cells; format: functional

Sequence of Cyclin-dependent kinase 5/CDK5 activator 1 (Q00535 whole entry): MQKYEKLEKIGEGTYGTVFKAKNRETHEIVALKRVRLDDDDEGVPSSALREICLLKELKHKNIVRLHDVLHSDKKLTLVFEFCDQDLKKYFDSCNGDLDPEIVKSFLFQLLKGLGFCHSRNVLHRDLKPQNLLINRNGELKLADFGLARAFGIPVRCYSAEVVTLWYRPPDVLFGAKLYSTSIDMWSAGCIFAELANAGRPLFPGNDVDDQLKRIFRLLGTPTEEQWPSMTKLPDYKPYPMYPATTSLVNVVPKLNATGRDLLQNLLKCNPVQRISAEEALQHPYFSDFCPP
Sequence of Cyclin-dependent kinase 5/CDK5 activator 1 (Q15078 whole entry, further chain): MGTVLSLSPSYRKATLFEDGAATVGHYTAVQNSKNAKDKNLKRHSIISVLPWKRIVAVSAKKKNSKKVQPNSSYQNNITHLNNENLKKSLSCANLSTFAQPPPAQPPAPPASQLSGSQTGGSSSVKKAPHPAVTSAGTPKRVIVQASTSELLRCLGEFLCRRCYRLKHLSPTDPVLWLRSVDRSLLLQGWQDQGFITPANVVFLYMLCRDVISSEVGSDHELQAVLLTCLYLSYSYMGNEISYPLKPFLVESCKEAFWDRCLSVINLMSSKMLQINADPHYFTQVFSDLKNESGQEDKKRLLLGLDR
Sequence of Integrin alpha-V/beta-3 (P05106 27-788 limits assumed): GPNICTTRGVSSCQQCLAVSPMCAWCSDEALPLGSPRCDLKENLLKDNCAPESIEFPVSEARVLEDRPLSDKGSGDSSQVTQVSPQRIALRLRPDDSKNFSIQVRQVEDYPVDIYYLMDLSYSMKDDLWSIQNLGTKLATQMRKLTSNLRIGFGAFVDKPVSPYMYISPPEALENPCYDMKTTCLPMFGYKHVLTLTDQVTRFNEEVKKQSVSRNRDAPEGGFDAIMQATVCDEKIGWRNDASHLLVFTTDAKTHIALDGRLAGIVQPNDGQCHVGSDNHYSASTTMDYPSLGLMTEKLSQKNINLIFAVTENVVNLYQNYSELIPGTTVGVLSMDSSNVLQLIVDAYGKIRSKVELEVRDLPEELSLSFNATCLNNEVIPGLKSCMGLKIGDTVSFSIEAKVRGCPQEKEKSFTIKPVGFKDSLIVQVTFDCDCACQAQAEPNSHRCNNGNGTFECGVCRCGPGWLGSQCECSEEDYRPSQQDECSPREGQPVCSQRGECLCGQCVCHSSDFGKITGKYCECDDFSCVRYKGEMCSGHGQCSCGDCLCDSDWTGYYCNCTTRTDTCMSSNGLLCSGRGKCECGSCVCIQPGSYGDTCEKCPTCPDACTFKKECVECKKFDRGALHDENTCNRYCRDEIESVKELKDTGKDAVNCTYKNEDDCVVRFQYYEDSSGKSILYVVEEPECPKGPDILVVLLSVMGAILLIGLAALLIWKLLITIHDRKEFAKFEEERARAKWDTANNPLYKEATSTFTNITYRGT
Sequence of Integrin alpha-V/beta-3 (P06756 31-889 limits assumed): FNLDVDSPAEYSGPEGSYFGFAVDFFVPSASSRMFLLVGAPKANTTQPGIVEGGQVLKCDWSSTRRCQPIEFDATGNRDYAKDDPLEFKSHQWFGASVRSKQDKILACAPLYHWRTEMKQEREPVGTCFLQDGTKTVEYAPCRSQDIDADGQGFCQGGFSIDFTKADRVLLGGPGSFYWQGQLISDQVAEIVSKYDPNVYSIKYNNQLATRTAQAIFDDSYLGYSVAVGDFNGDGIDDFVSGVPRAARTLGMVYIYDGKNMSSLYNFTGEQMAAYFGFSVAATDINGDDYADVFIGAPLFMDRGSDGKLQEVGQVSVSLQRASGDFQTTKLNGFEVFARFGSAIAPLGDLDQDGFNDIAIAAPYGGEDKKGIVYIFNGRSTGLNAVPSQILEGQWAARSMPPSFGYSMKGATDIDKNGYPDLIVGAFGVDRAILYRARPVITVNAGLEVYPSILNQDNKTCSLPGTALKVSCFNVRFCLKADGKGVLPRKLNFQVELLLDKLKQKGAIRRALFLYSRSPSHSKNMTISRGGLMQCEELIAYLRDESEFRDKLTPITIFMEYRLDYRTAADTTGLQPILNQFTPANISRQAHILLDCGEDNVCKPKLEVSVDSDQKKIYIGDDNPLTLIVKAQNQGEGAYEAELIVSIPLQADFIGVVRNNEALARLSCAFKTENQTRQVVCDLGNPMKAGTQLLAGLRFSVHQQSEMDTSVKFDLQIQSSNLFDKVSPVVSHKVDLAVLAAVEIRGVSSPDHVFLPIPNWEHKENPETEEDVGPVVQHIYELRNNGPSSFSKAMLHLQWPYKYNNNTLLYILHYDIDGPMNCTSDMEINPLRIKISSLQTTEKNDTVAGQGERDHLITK
Sequence of Integrin alpha-V/beta-3 (P06756 891-1048 limits assumed): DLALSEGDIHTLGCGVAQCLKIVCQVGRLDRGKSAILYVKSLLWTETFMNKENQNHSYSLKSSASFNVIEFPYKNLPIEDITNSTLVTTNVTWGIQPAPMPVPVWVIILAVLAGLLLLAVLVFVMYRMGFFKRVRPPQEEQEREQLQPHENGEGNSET
Sequence of RAF proto-oncogene serine/threonine-protein kinase (P04049 whole entry): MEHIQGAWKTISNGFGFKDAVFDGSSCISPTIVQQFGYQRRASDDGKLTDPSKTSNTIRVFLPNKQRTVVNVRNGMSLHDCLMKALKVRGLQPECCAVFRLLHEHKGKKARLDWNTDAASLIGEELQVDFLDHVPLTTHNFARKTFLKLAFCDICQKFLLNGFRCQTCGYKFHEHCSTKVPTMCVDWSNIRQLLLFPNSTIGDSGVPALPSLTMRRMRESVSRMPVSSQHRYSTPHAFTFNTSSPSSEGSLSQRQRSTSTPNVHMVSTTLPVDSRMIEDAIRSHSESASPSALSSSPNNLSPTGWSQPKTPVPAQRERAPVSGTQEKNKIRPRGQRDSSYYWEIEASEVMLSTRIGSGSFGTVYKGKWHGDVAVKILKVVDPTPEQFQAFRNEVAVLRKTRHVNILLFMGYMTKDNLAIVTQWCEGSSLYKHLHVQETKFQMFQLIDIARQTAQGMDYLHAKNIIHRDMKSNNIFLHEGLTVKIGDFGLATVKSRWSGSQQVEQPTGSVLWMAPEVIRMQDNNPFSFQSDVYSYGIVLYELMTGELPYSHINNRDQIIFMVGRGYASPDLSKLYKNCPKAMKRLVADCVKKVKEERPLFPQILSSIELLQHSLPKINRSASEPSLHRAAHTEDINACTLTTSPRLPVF
Sequence of CDK9/Cyclin T (O60563 whole entry): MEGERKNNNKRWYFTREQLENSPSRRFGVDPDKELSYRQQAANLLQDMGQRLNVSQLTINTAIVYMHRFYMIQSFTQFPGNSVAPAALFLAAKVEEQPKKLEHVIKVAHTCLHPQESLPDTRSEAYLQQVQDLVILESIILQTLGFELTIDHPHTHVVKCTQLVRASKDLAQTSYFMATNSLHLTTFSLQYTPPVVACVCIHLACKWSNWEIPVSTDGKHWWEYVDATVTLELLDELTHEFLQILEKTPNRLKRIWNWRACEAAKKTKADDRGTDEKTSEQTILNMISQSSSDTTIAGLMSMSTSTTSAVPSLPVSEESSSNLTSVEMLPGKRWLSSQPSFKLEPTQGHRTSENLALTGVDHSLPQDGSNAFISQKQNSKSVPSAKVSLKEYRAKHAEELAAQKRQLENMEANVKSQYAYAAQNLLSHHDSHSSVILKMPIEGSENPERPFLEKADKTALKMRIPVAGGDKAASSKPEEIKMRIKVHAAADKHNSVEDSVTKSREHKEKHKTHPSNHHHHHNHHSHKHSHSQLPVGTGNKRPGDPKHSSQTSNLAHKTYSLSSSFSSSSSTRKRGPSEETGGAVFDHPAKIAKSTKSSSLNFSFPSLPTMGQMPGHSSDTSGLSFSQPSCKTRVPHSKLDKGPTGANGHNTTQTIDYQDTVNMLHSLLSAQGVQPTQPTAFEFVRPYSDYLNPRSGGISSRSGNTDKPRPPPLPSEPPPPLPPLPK
Sequence of CDK9/Cyclin T (P50750 whole entry): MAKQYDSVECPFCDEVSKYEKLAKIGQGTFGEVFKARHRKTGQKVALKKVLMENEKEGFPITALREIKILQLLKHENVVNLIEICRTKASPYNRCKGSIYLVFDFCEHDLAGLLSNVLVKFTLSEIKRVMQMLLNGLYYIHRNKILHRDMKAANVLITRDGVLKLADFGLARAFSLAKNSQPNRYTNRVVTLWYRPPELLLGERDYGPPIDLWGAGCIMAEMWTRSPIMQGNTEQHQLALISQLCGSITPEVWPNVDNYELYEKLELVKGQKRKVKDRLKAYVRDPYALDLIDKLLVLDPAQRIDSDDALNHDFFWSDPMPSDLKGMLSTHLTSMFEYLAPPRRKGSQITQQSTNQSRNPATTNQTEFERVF
Sequence of CDK9/Cyclin T (O60583 whole entry, further chain): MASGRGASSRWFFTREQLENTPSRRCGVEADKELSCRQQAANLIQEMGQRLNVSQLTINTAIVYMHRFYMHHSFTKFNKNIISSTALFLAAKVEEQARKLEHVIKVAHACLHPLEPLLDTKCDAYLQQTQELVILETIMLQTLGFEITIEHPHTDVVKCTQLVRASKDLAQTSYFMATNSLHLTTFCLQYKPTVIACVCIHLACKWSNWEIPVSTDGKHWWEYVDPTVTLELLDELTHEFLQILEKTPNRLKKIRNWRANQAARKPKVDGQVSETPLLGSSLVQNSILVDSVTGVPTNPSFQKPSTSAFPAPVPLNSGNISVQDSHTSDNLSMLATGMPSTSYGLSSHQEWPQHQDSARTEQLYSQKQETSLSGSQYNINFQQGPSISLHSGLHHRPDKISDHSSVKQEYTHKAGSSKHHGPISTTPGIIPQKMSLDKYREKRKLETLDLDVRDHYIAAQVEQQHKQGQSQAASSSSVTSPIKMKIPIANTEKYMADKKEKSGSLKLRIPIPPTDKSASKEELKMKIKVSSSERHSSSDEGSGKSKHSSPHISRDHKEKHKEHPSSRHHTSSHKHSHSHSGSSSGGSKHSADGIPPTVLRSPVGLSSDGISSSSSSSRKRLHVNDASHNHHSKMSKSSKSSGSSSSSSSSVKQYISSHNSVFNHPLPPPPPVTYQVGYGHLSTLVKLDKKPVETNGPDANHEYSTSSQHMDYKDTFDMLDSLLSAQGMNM

NC1=NC(=O)/C(=C2\CCNC(=O)c3[nH]c4ccc(Br)cc4c32)N1
IC50 [1]: 1 µM
IC50 [2]: 0.213 µM

NC1=NC(=O)/C(=C2\CCNC(=O)c3[nH]c4ccc(Cl)cc4c32)N1
IC50 [1]: 2.3 µM
IC50 [2]: 0.191 µM

COc1ccc(-c2cc3c([nH]2)C(=O)NCC/C3=C2/NC(N)=NC2=O)cc1OC
Ratio IC50 [3]: 111

O=C1Cc2c([nH]c3ccc(Br)cc23)-c2sccc2N1
IC50 [2]: 0.12 µM

NC1=NC(=O)/C(=C2\CCNC(=O)c3[nH]c(Cl)c(Cl)c32)N1
IC50 [1]: 0.22 µM
IC50 [2]: 0.062 µM

O=C1NCC/C(=N\Nc2cccnc2)c2c1[nH]c1ccc(F)cc21
IC50 [2]: 0.012 µM

Nc1ncc2c(n1)CNC(=O)c1[nH]c(Br)c(Br)c1-2
EC50 [4]: 9 µg/mL (≈ 24.1 µM)

O=C1NCC/C(=N\Nc2ccccn2)c2c1[nH]c(Br)c2Br
IC50 [2]: 10.4 µM

N#Cc1ccc2[nH]c3c(c2c1)CC(=O)Nc1cccnc1-3 [CAZPAULLONE]
IC50 [1]: 0.5 µM
IC50 [5]: 0.5 µM

O=c1[nH]c2ccccc2c2c1[nH]c1ccccc12
IC50 [6]: 6.5 µM

NC1=NC(=O)/C(=C2\CCNC(=O)c3[nH]c4ccc(F)cc4c32)N1
IC50 [1]: 0.55 µM
IC50 [2]: 0.177 µM

O=C(O)CC1CCC(=O)N(CC(=O)NC[C@H]2CC[C@H](Nc3nc4ccccc4[nH]3)CC2)c2ccccc21 (some centres undefined)
IC50 [7]: 0.04 nM

Cc1nnc2n1-c1ccccc1C(c1ccc(Cl)cc1)=C[C@@H]2CC(=O)Nc1ccc2c(c1)NC(=O)C2
IC50 [8]: 0.17 µM
IC50 [9]: 0.08 µM

CCOC(=O)C[C@H]1C=C(c2ccc(Cl)cc2)c2ccccc2-n2c(C)nnc21
IC50 [8]: 0.12 µM
IC50 [9]: 0.08 µM

O=C1Cc2c([nH]c3cc[n+](Cc4ccccc4)cc23)-c2ccccc2N1.[Br-]
IC50 [5]: 6.2 µM
IC50 [10]: > 10 µM
IC50 [2]: 7.3 µM
IC50 [11]: 0.24 µM
IC50 [12]: > 10 µM

Nc1ncc(/C=C/CNC(=O)c2cc(Br)c(Br)[nH]2)[nH]1 [OROIDIN]
inhibition at 50 µM [13]: 50%

O=C1Cc2c([nH]c3ccncc23)-c2ccccc2N1
IC50 [1]: 2.1 µM
IC50 [10]: > 10 µM

CC(=O)NC1=NC(=O)/C(=C2\CCNC(=O)c3[nH]c(Br)c(Br)c32)N1
IC50 [1]: 1.5 µM
IC50 [2]: 0.533 µM

NC1=NC(=O)/C(=C2\CCNC(=O)c3[nH]c4ccccc4c32)N1
IC50 [1]: 0.8 µM
IC50 [2]: 0.177 µM
IC50 [14]: 3.5 µM
IC50 [15]: 8.2 µM
Ratio IC50 [3]: 29

NC1=NC(=O)/C(=C2\CCNC(=O)c3[nH]c(Br)c(Br)c32)N1
IC50 [1]: 0.53 µM
IC50 [2]: 0.056 µM

CCCNC1=NC(=O)/C(=C2\CCNC(=O)c3[nH]c(-c4ccccc4)cc32)N1
IC50 [16]: > 1 µM
Ratio IC50 [3]: > 64

O=C1Cc2c([nH]c3cc[n+]([O-])cc23)-c2ccccc2N1
IC50 [1]: > 10 µM
IC50 [5]: > 10 µM
IC50 [10]: > 10 µM
IC50 [2]: > 10 µM
IC50 [11]: 7.4 µM
IC50 [12]: > 10 µM

NCCCCOc1ccc2c(c1)-c1[nH]c3ccc(Br)cc3c1CC(=O)N2
IC50 [17]: 0.04 µM

O=C1NC(=O)/C(=C2\CCNC(=O)c3[nH]c(Br)cc32)N1 [SPONGIACIDIN D]
IC50 [1]: 4 µM
IC50 [18]: 9 µM
IC50 [10]: 4.5 µM
IC50 [2]: 7 µM

O=C1N=C(NCc2ccccc2)N/C1=C1/CCNC(=O)c2[nH]c(-c3ccccc3)cc21
Ratio IC50 [3]: 32

O=C1Nc2ccccc2/C1=C1/Nc2ccccc2/C1=N\O
IC50 [17]: 0.022 µM

CCOC(=O)c1[nH]cc2c1-c1[nH]c3ccccc3c1C(=O)NC2
inhibition [19]: 78%

O=C1NCc2ccccc2-c2c1[nH]c1ccccc21
IC50 [20]: 0.6 µM
IC50 [21]: 0.6 µM

O=C1Cc2c([nH]c3ccc(Br)cc23)-c2cccnc2N1
IC50 [2]: 6 µM
Selectivity Index [22]: 1.4

CCOC(=O)c1cc2c([nH]1)-c1[nH]c3ccccc3c1C(=O)NC2
inhibition [23]: 50%
inhibition [24]: 50%
inhibition [25]: 50%
inhibition [26]: 50%
inhibition [27]: 50%
inhibition [28]: 50%

O=C(O)CC1CCC(=O)N(CC(=O)NCc2ccc(Nc3nc4ccccc4[nH]3)cc2)c2ccccc21 (centres undefined)
IC50 [7]: 0.5 nM

O=C1Cc2c([nH]c3ccc([N+](=O)[O-])cc23)-c2ccccc2N1 [ALSTERPAULLONE]
IC50 [29]: > 100 µM
IC50 [30]: > 10 µM
IC50 [31]: > 10 µM
IC50 [32]: 7 µM
IC50 [33]: > 100 µM

O=C1NCC/C(=N\Nc2ccc(Cl)cn2)c2c1[nH]c1ccc(F)cc21
IC50 [2]: 0.075 µM

O=C1Cc2c(-c3ccccc3)cc(-c3ccco3)nc2-c2ccccc2N1
GI50 [34]: 6.6 µM

CCNC1=NC(=O)/C(=C2\CCNC(=O)c3[nH]c(Br)c(Br)c32)N1
IC50 [1]: > 10 µM
IC50 [2]: 9.12 µM

NC1=NC(=O)/C(=C2\CCNC(=O)c3[nH]cc(Br)c32)N1
IC50 [1]: 1.5 µM
IC50 [2]: 0.079 µM

COc1ccc2c3c([nH]c2c1)C(=O)NCc1ccccc1-3
IC50 [20]: 4 µM
IC50 [21]: 4 µM

NC1=NC(=O)/C(=C2\CCNC(=O)c3[nH]c(-c4ccccc4)cc32)N1
Ratio IC50 [3]: 66

O=C1Cc2c([nH]c3ccc(Br)cc23)-c2ccccc2N1 [KENPAULLONE]
IC50 [29]: > 100 µM
IC50 [30]: > 100 µM
IC50 [31]: 38 µM
IC50 [32]: > 1000 µM
IC50 [33]: > 1000 µM

CNC1=NC(=O)/C(=C2\CCNC(=O)c3[nH]c(-c4ccccc4)cc32)N1
Ratio IC50 [3]: 38

COc1ccc2c(c1)C(CC(=O)O)CCC(=O)N2CC(=O)NC[C@H]1CC[C@H](Nc2nc3ccccc3[nH]2)CC1 (some centres undefined)
IC50 [7]: 0.26 nM

O=C1NC(=O)/C(=C2\CCNC(=O)c3[nH]ccc32)N1 [SPONGIACIDIN C]
IC50 [18]: 22 µM

Nc1ncc(C2=CCNC(=O)c3[nH]c(Br)c(Br)c32)[nH]1 [STEVENSINE]
EC50 [4]: 3.5 µg/mL (≈ 9.04 µM)

O=C1NCC/C(=N\Nc2cccnc2Cl)c2c1[nH]c1ccc(F)cc21
IC50 [2]: 0.012 µM

O=C1Cc2c(-c3ccco3)cc(-c3ccccc3)nc2-c2ccccc2N1
GI50 [34]: 5.5 µM

Cc1nnc(C[C@H]2C=C(c3ccc(Cl)cc3)c3ccccc3-n3c(C)nnc32)o1
IC50 [8]: 0.12 µM
IC50 [9]: 0.04 µM

O=C1NCCCc2ccccc2-c2c1[nH]c1ccccc21
IC50 [6]: 8 µM

O=C1Cc2c(-c3ccccc3)cc(-c3ccc(Cl)cc3)nc2-c2ccccc2N1
GI50 [34]: 1.7 µM
